{"source": "patent US12351830B2", "about": "“Method for maintaining and amplifying colon cancer stem cells and method for inducing colon cancer organoid” (NATIONAL UNIVERSITY CORPORATION KOBE UNIVERSITY, priority 2017, dated 2025)", "assay_type_in_all_cases": "cell-based, human", "key": {"[1]": {"tested_on": "2nd V50-OKS cells", "assay": "flat plane adhesion culture of induced colon cancer stem cells, cell count and morphology", "conditions": "for effect in flat plane adhesion culture (morphology, number of cells): VPA 1 mM, CHIR99021 3 μM, 5 days", "protocol": "A human colon cancer cell line (SW480) and Plat-A amphotropic retrovirus packaging cells were obtained from the ATCC collection and Cell Biolabs (San Diego, CA, USA), respectively. Both cells were maintained in Dulbecco's modified Eagle's medium (DMEM) (Nacalai Tesque, Kyoto, Japan) supplemented with 10% fetal bovine serum (FBS) (Life Technologies) and penicillin (100 Units/ml) and streptomycin (100 μg/ml) (Life Technologies) at 37° C. in a humidified 5% […] incubator. In Plat-A culture, 1 μg/ml of puromycin (Nacalai Tesque) and 10 μg/ml of blasticidin (Funakoshi) were added. HUVECs (Lonza) and human MSCs (Lonza) were maintained in endothelial growth medium (Lonza) at 37° C. in a humidified 5% CO2 incubator. The cells were treated with FK506 (Sigma, 25 μM), VPA (WAKO, 1 mM) or CHIR99021 (Funakoshi, 3 μM) for 5 days. Thereafter, the cells were detached from the culture dish by an enzyme treatment, dispersed and the number of the cells was counted with Countess system (Invitrogen). The human induced pluripotent stem (hiPS) cells used as a control were generated from human peripheral blood mononuclear cells in the laboratory.\nCulture of SW480 cells after introduction of reprogramming factor, isolation of induced colon cancer stem cell (hereinafter to be also referred to as “colon iCSC”)-enriched cell population and induction of colon cancer organoid were performed according to the schedule described in FIG. 6. Establishing culture of colon iCSC and sorting of colon iCSC-enriched cell population were performed according to the method described in the above-mentioned non-patent document 3 (flow cytometry utilizing Hoechst33342 eliminating ability in the presence of 50 μM verapamil). Hereinafter colon iCSC-enriched cell population (cell population not labeled with Hoechst33342 in the presence of 50 μM verapamil; V50 cell) obtained by the first sorting is sometimes to be abbreviated as 1st V50 cell (or 1st V50-OKS cell), and the V50 cell obtained by the second sorting is sometimes to be abbreviated as 2nd V50 cell (or 2nd V50-OKS cell). On the other hand, the cell population labeled with Hoechst33342 in the presence of 50 μM verapamil is sometimes to be abbreviated as non V50cell or non V50-OKS cell. Colon cancer organoid was induced by the method described in the below-mentioned sphere formation assay.\nSW480 cells or 2nd V50 cells were subjected to flat plane adhesion culture in the presence of FK506 (Sigma) for 5-15 days, and the cell number was counted with Countess (Invitrogen) system. Alternatively, the cells were subjected to flat plane adhesion culture in the presence of FK506, and then suspension culture in the presence or absence of FK506 to form spheres. The sphere number was counted with Countess (Invitrogen) system. Unless otherwise specified, FK506 was used at a concentration of 25 μM in this Example.\nDuplexed Stealth siRNA (Invitrogen) were used for reference examples and were transduced to the cells according to the manufacturer's protocol."}, "[2]": {"tested_on": "2nd V50-OKS cells", "assay": "sphere formation assay, induced colon cancer stem cells", "conditions": "VPA 1 mM, CHIR99021 3 μM, 10 days", "protocol": "The cells were transferred to Ultra Low Attachment plates (Corning) in serum-free DMEM containing 10 ng/ml bFGF (WAKO), 10 μg/ml human insulin (CST), 100 μg/ml human transferrin (Roche) and 100 μg/ml BSA (Nacalai Tesque), and incubated at 37° C. in a 5% CO2 incubator for 10 days. The sphere count was calculated based on the sphere size which was larger than 100 μm. FK506 (25 μM), VPA (1 mM) or CHIR99021 (3 μM) were added to the medium and the spheres were then treated for 10 days. SW480 cells or 2nd V50 cells were subjected to flat plane adhesion culture in the presence of FK506 (Sigma) for 5-15 days, and the cell number was counted with Countess (Invitrogen) system. Alternatively, the cells were subjected to flat plane adhesion culture in the presence of FK506, and then suspension culture in the presence or absence of FK506 to form spheres. The sphere number was counted with Countess (Invitrogen) system. Unless otherwise specified, FK506 was used at a concentration of 25 μM in this Example."}, "[3]": {"tested_on": "2nd V50 cells", "assay": "colony formation assay", "conditions": "1 mM VPA, 3 μM CHIR or 25 μM FK506, day 12", "protocol": "2nd VP50 cells produced by 3 independent experiments were seeded in a 6 well plate at a density of 2×10^3 cells/well. The next day, the medium was changed to a medium not added with the compound, or a medium added with 1 mM VPA, 3 μM CHIR or 25 μM FK506. Thereafter, the medium was changed every 2 days or 3 days. On day 12, the cells were fixed with methanol, stained with crystal violet and the colonies were counted using a stereoscopic microscope."}, "[4]": {"tested_on": "NFATc3-GFP", "assay": "localization of NFATc3-GFP in 2nd V50-OKS cells", "conditions": "2nd V50-OKS cells treated with compound", "description": "Retroviral vectors separately encoding OCT3/4, SOX2 or KLF4 in pMXs based vectors (pMXs-OCT3/4, pMXs-SOX2, pMXs-KLF4) were obtained from Addgene. Therefore, using these vectors, the polycistronic retroviral vector encoding OCT3/4, KLF4 and SOX2 (pMXs-OKS) was designed. That is, human OCT3/4, KLF4 and SOX2 were amplified by polymerase chain reaction (PCR) with primers containing the 2A sequences of Thosea asigna virus (T2A) and cloned into EcoRI site of pMXs vector using the In-fusion HD cloning system (Clontech). To generate pMXs-NFATc3-GFP construct, NFATc3-GFP cDNA were PCR amplified using HA-NFAT4 (3-407)-GFP (purchased from Addgene #21664) as a template and cloned into EcoRI-Notl site of pMXs-vector).\nFinally, the cellular localization of NFAT after the treatment of FK506, VPA and CHIR in the iCSCs was examined. NFATc3 fused to green fluorescent protein (NFATc3-GFP; Aramburu J, et al., Science, 1999; 285:2129-33, Peuker K, et al., Nat Med, 2016, 22:506-15) was retrovirally introduced into 2nd V50-OKS cells. In the 2nd V50-OKS cells without any compounds and those with FK506, it was observed that NFATc3-GFP localized in the cytoplasm. In contrast, localization of NFATc3-GFP was found in the nuclei of the 2nd V50-OKS cells treated with VPA and CHIR (FIG. 16). […] This is opposite to inhibition of calcineurin via cytoplasm-nuclear translocation of NFAT."}, "[5]": {"tested_on": "2nd V50-OKS-SW480 cells", "assay": "5-FU-chemoresistance analysis", "conditions": "1 and 50 μg/ml 5-FU, 72 hr, relative to cells without 5-FU, n=3", "protocol": "A total of 6×10^4 cells were seeded in 12-well plates with DMEM containing 0, 1, 50 μg/ml of 5-fluorouracil (5-FU, Kyowa Kirin) respectively. After incubation for 72 hr, the cell viability after 5-FU exposure was measured by the Countess (Invitrogen) system."}}}
{"smiles": "CCCC(CCC)C(=O)O", "note": "[VPA, valproic acid]", "values": [{"measurement": "effect in flat plane adhesion culture (morphology, number of cells)", "setting": "[1]", "value": "the same effect as siRNA"}, {"measurement": "sphere forming ability", "setting": "[2]", "value": "significantly suppressed"}, {"measurement": "number of secondary dome-shaped colonies", "setting": "[3]", "value": "decreased"}, {"measurement": "cellular localization of NFATc3-GFP", "setting": "[4]", "value": "nuclei"}]}
{"smiles": "C=CC[C@@H]1/C=C(\\C)C[C@H](C)C[C@H](OC)[C@H]2O[C@@](O)(C(=O)C(=O)N3CCCC[C@H]3C(=O)O[C@H](/C(C)=C/[C@@H]3CC[C@@H](O)[C@H](OC)C3)[C@H](C)[C@@H](O)CC1=O)[C@H](C)C[C@@H]2OC", "note": "[FK506, FK506 (tacrolimus)]", "values": [{"measurement": "effect on the cell number", "setting": "[1]; 2nd V50-OKS cultures, FK506 25 μM, 5 days after passage", "value": "no significant effect"}, {"measurement": "total cell number amplification", "setting": "[1]; 2nd V50 cells adhesion cultured with FK506, 10 days", "value": "about 100 times"}, {"measurement": "total cell number amplification", "setting": "[1]; 2nd V50 cells adhesion cultured with FK506, 15 days", "value": "about 1000 times"}]}
{"smiles": "Cc1c[nH]c(-c2cnc(NCCNc3ccc(C#N)cn3)nc2-c2ccc(Cl)cc2Cl)n1", "note": "[CHIR99021]", "values": [{"measurement": "effect in flat plane adhesion culture (morphology, number of cells)", "setting": "[1]", "value": "the same effect as siRNA"}, {"measurement": "sphere forming ability", "setting": "[2]", "value": "significantly suppressed"}, {"measurement": "number of secondary dome-shaped colonies", "setting": "[3]", "value": "decreased"}, {"measurement": "cellular localization of NFATc3-GFP", "setting": "[4]", "value": "nuclei"}]}
{"smiles": "O=c1[nH]cc(F)c(=O)[nH]1", "note": "[5-FU, 5-fluorouracil]", "values": [{"measurement": "viability of 2nd V50-OKS-SW480 cells in the presence of 5-FU compared with parental SW480 cells", "setting": "[5]", "value": "significantly higher"}]}
